From PubChem BioAssay AID2060883 (Molecular Pharmacology Branch, DTP, NCI, 2025)

Test system: 843782-103-R-J1-PDC complex spheroid viability
Assay: Anticancer human tumor 843782-103-R-J1-PDC patient-derived lung adenocarcinoma cell line growth inhibition [RAS]
Details: for viability, T/C: stronger effect = lower value
Procedure, shortened: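 Agents were tested in combination matrices in half-log decrements from a top concentration at or near clinical Cmax (10 microM if undetermined). Targets were multi-cell spheroids of tumour lines plus HUVEC and MSC stromal cells.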

[1] = curve of first compound, second compound 0.000949 µM
[2] = curve of first compound, second compound 0.003 µM
[3] = curve of first compound, second compound 0.00949 µM
[4] = curve of first compound, second compound 0.03 µM
[5] = curve of first compound, second compound 0.0949 µM
[6] = curve of first compound, second compound 0.3 µM
[7] = second compound 0.000949 µM, first compound 0.0316 µM
[8] = second compound 0.000949 µM, first compound 0.1 µM
[9] = second compound 0.000949 µM, first compound 0.316 µM
[10] = second compound 0.000949 µM, first compound 1 µM
[11] = second compound 0.003 µM, first compound 0.0316 µM
[12] = second compound 0.003 µM, first compound 0.1 µM
[13] = second compound 0.003 µM, first compound 0.316 µM
[14] = second compound 0.003 µM, first compound 1 µM
[15] = second compound 0.00949 µM, first compound 0.0316 µM
[16] = second compound 0.00949 µM, first compound 0.1 µM
[17] = second compound 0.00949 µM, first compound 0.316 µM
[18] = second compound 0.00949 µM, first compound 1 µM
[19] = second compound 0.03 µM, first compound 0.0316 µM
[20] = second compound 0.03 µM, first compound 0.1 µM
[21] = second compound 0.03 µM, first compound 0.316 µM
[22] = second compound 0.03 µM, first compound 1 µM
[23] = second compound 0.0949 µM, first compound 0.0316 µM
[24] = second compound 0.0949 µM, first compound 0.1 µM
[25] = second compound 0.0949 µM, first compound 0.316 µM
[26] = second compound 0.0949 µM, first compound 1 µM
[27] = second compound 0.3 µM, first compound 0.0316 µM
[28] = second compound 0.3 µM, first compound 0.1 µM
[29] = second compound 0.3 µM, first compound 0.316 µM
[30] = second compound 0.3 µM, first compound 1 µM
[31] = second compound 0.000949 µM, first compound 3.16 µM
[32] = second compound 0.000949 µM, first compound 10 µM
[33] = second compound 0.003 µM, first compound 3.16 µM
[34] = second compound 0.003 µM, first compound 10 µM
[35] = second compound 0.00949 µM, first compound 3.16 µM
[36] = second compound 0.00949 µM, first compound 10 µM
[37] = second compound 0.03 µM, first compound 3.16 µM
[38] = second compound 0.03 µM, first compound 10 µM
[39] = second compound 0.0949 µM, first compound 3.16 µM
[40] = second compound 0.0949 µM, first compound 10 µM
[41] = second compound 0.3 µM, first compound 3.16 µM
[42] = second compound 0.3 µM, first compound 10 µM
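Further: viability read after seven days of compound exposure.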

Question: What does the source list for CCN1CCN(Cc2ccc(Nc3ncc(F)c(-c4cc(F)c5nc(C)n(C(C)C)c5c4)n3)nc2)CC1 + CCn1c(-c2cccnc2C(C)OC)c2c3cc(ccc31)N1CCOC(CC(NC(=O)C(C(C)C)N(C)C(=O)C3(F)CCN(C(=O)C#CC(C)(C)N(C)C)CC3)C(=O)N3CCCC(N3)C(=O)OCC(C)(C)C2)C1?
Answer: IC50 [1]: 197 nM; IC50 [2]: 291 nM; IC50 [3]: 237 nM; IC50 [4]: 406 nM; IC50 [5]: 329 nM; IC50 [6]: 298 nM; viability, T/C (second compound 0.000949 µM, first compound 0.00316 µM): 81%; viability, T/C (second compound 0.000949 µM, first compound 0.01 µM): 73.8%; viability, T/C [7]: 59%; viability, T/C [8]: 58.3%; viability, T/C [9]: 46.5%; viability, T/C [10]: 38.1%; viability, T/C (second compound 0.003 µM, first compound 0.00316 µM): 78.8%; viability, T/C (second compound 0.003 µM, first compound 0.01 µM): 69.4%; viability, T/C [11]: 62.8%; viability, T/C [12]: 67.1%; viability, T/C [13]: 45.4%; viability, T/C [14]: 37.8%; viability, T/C (second compound 0.00949 µM, first compound 0.00316 µM): 71.4%; viability, T/C (second compound 0.00949 µM, first compound 0.01 µM): 72.5%; viability, T/C [15]: 67.6%; viability, T/C [16]: 61.2%; viability, T/C [17]: 46.2%; viability, T/C [18]: 34.1%; viability, T/C (second compound 0.03 µM, first compound 0.00316 µM): 71.3%; viability, T/C (second compound 0.03 µM, first compound 0.01 µM): 72%; viability, T/C [19]: 71%; viability, T/C [20]: 58.8%; viability, T/C [21]: 56.4%; viability, T/C [22]: 35.6%; viability, T/C (second compound 0.0949 µM, first compound 0.00316 µM): 84.2%; viability, T/C (second compound 0.0949 µM, first compound 0.01 µM): 75.7%; viability, T/C [23]: 68.7%; viability, T/C [24]: 60.3%; viability, T/C [25]: 46.7%; viability, T/C [26]: 45%; viability, T/C (second compound 0.3 µM, first compound 0.00316 µM): 72%; viability, T/C (second compound 0.3 µM, first compound 0.01 µM): 66.1%; viability, T/C [27]: 56.5%; viability, T/C [28]: 66.8%; viability, T/C [29]: 46%; viability, T/C [30]: 38.8%

Question: CCn1c(-c2cc(N3CCN(C)CC3)cnc2C(C)OC)c2c3cc(ccc31)-c1csc(n1)CC(NC(=O)C1CC1C)C(=O)N1CCCC(N1)C(=O)OCC(C)(C)C2 (centres undefined) was tested. Which viability, T/C (compound 0.000949 µM) did it give?
Answer: 85.8% [middle of 8 runs]

Question: What about the viability, T/C (compound 0.003 µM) of the same compound?
Answer: 65.7% [middle of 8 runs]

Question: And the viability, T/C (compound 0.00949 µM)?
Answer: 37.1% [middle of 8 runs]

Question: And the viability, T/C (compound 0.03 µM)?
Answer: 22.4% [middle of 8 runs]

Question: What about the viability, T/C (compound 0.0949 µM) of the same compound?
Answer: 17.1% [middle of 8 runs]

Question: And the viability, T/C (compound 0.3 µM)?
Answer: 14.2% [middle of 8 runs]

Question: What about the IC50 (compound alone, run of 08/26/2024) of the same compound?
Answer: 5.72 nM [middle of 8 runs]

Question: What does the source list for Nc1ccn(C2OC(CO)C(O)C2(F)F)c(=O)n1 (centres undefined)?
Answer: viability, T/C (compound 0.00316 µM): 107% [middle of 4 runs]; viability, T/C (compound 0.01 µM): 101% [middle of 4 runs]; viability, T/C (compound 0.1 µM): 3.52% [middle of 4 runs]; viability, T/C (compound 0.316 µM): 2.19% [middle of 4 runs]; viability, T/C (compound 1 µM): 2.92% [middle of 4 runs]; IC50 (curve of compound): 34.1 nM [middle of 4 runs]

Question: For Cc1nc(N2CCC3(CC2)COC(C)C3N)c(CO)nc1Sc1ccnc(N)c1Cl (centres undefined) + CCn1c(-c2cccnc2C(C)OC)c2c3cc(ccc31)N1CCOC(CC(NC(=O)C(C(C)C)N(C)C(=O)C3(F)CCN(C(=O)C#CC(C)(C)N(C)C)CC3)C(=O)N3CCCC(N3)C(=O)OCC(C)(C)C2)C1, which IC50 [1] is on record?
Answer: 55 nM

Question: What about the IC50 [2] of the same compound?
Answer: 50.4 nM

Question: And the IC50 [3]?
Answer: 53.8 nM

Question: And the IC50 [4]?
Answer: 44.4 nM

Question: And the IC50 [5]?
Answer: 45.3 nM

Question: And the IC50 [6]?
Answer: 36.9 nM

Question: And the viability, T/C [7]?
Answer: 57.4%

Question: And the viability, T/C [8]?
Answer: 43.4%

Question: And the viability, T/C [9]?
Answer: 31.3%

Question: What about the viability, T/C [10] of the same compound?
Answer: 21%

Question: And the viability, T/C [31]?
Answer: 20.8%

Question: And the viability, T/C [32]?
Answer: 17.4%

Question: What about the viability, T/C [11] of the same compound?
Answer: 55.1%

Question: And the viability, T/C [12]?
Answer: 42%

Question: And the viability, T/C [13]?
Answer: 31.6%

Question: And the viability, T/C [14]?
Answer: 22.2%

Question: What about the viability, T/C [33] of the same compound?
Answer: 17.3%

Question: What about the viability, T/C [34] of the same compound?
Answer: 20.6%

Question: What about the viability, T/C [15] of the same compound?
Answer: 55.1%

Question: And the viability, T/C [16]?
Answer: 44.2%

Question: What about the viability, T/C [17] of the same compound?
Answer: 28.6%

Question: And the viability, T/C [18]?
Answer: 21.3%

Question: What about the viability, T/C [35] of the same compound?
Answer: 23.1%

Question: What about the viability, T/C [36] of the same compound?
Answer: 16.4%

Question: And the viability, T/C [19]?
Answer: 53.8%

Question: And the viability, T/C [20]?
Answer: 40.2%

Question: And the viability, T/C [21]?
Answer: 34.5%

Question: And the viability, T/C [22]?
Answer: 27.6%

Question: And the viability, T/C [37]?
Answer: 18.6%

Question: What about the viability, T/C [38] of the same compound?
Answer: 17.8%

Question: What about the viability, T/C [23] of the same compound?
Answer: 55.4%

Question: And the viability, T/C [24]?
Answer: 37%

Question: What about the viability, T/C [25] of the same compound?
Answer: 34.3%

Question: And the viability, T/C [26]?
Answer: 24.1%

Question: And the viability, T/C [39]?
Answer: 19.4%

Question: And the viability, T/C [40]?
Answer: 23.6%

Question: And the viability, T/C [27]?
Answer: 51.3%

Question: And the viability, T/C [28]?
Answer: 42.1%

Question: And the viability, T/C [29]?
Answer: 31.6%

Question: And the viability, T/C [30]?
Answer: 22.6%

Question: What about the viability, T/C [41] of the same compound?
Answer: 20.8%

Question: And the viability, T/C [42]?
Answer: 21.4%

Question: What does the source list for NC1c2ccccc2OC12CCN(c1cnc3c(N4CCCc5ncccc54)n[nH]c3n1)CC2 (centres undefined) + CCn1c(-c2cccnc2C(C)OC)c2c3cc(ccc31)N1CCOC(CC(NC(=O)C(C(C)C)N(C)C(=O)C3(F)CCN(C(=O)C#CC(C)(C)N(C)C)CC3)C(=O)N3CCCC(N3)C(=O)OCC(C)(C)C2)C1?
Answer: IC50 [1]: < 31.6 nM; IC50 [2]: < 31.6 nM; IC50 [3]: < 31.6 nM; IC50 [4]: < 31.6 nM; IC50 [5]: < 31.6 nM; IC50 [6]: < 31.6 nM; viability, T/C [7]: 35.5%; viability, T/C [8]: 24.2%; viability, T/C [9]: 17.8%; viability, T/C [10]: 17%; viability, T/C [31]: 11.9%; viability, T/C [32]: 15.1%; viability, T/C [11]: 32.3%; viability, T/C [12]: 21.8%; viability, T/C [13]: 20.1%; viability, T/C [14]: 16.4%; viability, T/C [33]: 15.2%; viability, T/C [34]: 12.4%; viability, T/C [15]: 27.7%; viability, T/C [16]: 25.4%; viability, T/C [17]: 21%; viability, T/C [18]: 14.5%; viability, T/C [35]: 14.9%; viability, T/C [36]: 13.7%; viability, T/C [19]: 28.8%; viability, T/C [20]: 24.7%; viability, T/C [21]: 21.4%; viability, T/C [22]: 18.5%; viability, T/C [37]: 15.8%; viability, T/C [38]: 14.1%; viability, T/C [23]: 38.2%; viability, T/C [24]: 24.4%; viability, T/C [25]: 24%; viability, T/C [26]: 16.6%; viability, T/C [39]: 15.4%; viability, T/C [40]: 12.4%; viability, T/C [27]: 26.1%; viability, T/C [28]: 23.8%; viability, T/C [29]: 18.8%; viability, T/C [30]: 21.8%; viability, T/C [41]: 16.9%; viability, T/C [42]: 14.1%
